Laboratory results taken from ChEMBL document CHEMBL4304804, “Synthesis and biological evaluation of calycanthaceous alkaloid analogs” (Bioorg Med Chem, 2019).
The source made the active and inactive calls.

Assays:
[1] = test system: Fusarium oxysporum f. sp. vasinfectum; assay: Antifungal activity against Fusarium oxysporum sp. vasinfectum assessed as reduction in fungal cell growth incubated for 48 hrs by serial dilution method; assay type: functional
[2] = test system: Cryptococcus neoformans; assay: Antifungal activity against Cryptococcus neoformans assessed as reduction in fungal cell growth incubated for 48 hrs by serial dilution method; assay type: functional
[3] = test system: Colletotrichum orbiculare; assay: Antifungal activity against Colletotrichum orbiculare assessed as reduction in fungal cell growth incubated for 48 hrs by serial dilution method; assay type: functional
[4] = target: Acetylcholinesterase (Electrophorus electricus, UniProt O42275); assay: Inhibition of electric eel AChE by Ellman's colorimetry
[5] = test system: Pseudomonas aeruginosa; assay: Antibacterial activity against Pseudomonas aeruginosa assessed as reduction in bacterial cell growth incubated for 24 hrs by filter paper assay; assay type: functional
[6] = test system: Aspergillus niger; assay: Antifungal activity against Aspergillus niger assessed as reduction in fungal cell growth incubated for 48 hrs by serial dilution method; assay type: functional
[7] = test system: Aspergillus flavus; assay: Antifungal activity against Aspergillus flavus assessed as reduction in fungal cell growth incubated for 48 hrs by serial dilution method; assay type: functional
[8] = test system: Escherichia coli; assay: Antibacterial activity against Escherichia coli assessed as reduction in bacterial cell growth incubated for 24 hrs by filter paper assay; assay type: functional
[9] = test system: Fusarium oxysporum; assay: Antifungal activity against Fusarium oxysporum assessed as reduction in fungal cell growth incubated for 48 hrs by serial dilution method; assay type: functional
[10] = test system: Penicillium citrinum; assay: Antifungal activity against Penicillium citrinum assessed as reduction in fungal cell growth incubated for 48 hrs by serial dilution method; assay type: functional
[11] = test system: Ralstonia solanacearum; assay: Antibacterial activity against Ralstonia solanacearum assessed as reduction in bacterial cell growth at 500 ug/ml incubated for 24 hrs by filter paper assay relative to control; assay type: functional
[12] = test system: Staphylococcus aureus; assay: Antibacterial activity against Staphylococcus aureus assessed as reduction in bacterial cell growth incubated for 24 hrs by filter paper assay; assay type: functional
[13] = test system: Curvularia lunata; assay: Antifungal activity against Curvularia lunata assessed as reduction in fungal cell growth incubated for 48 hrs by serial dilution method; assay type: functional
[14] = test system: Candida; assay: Antifungal activity against […] assessed as reduction in fungal cell growth incubated for 48 hrs by serial dilution method; assay type: functional
[15] = test system: Ralstonia solanacearum; assay: Antibacterial activity against Ralstonia solanacearum assessed as reduction in bacterial cell growth incubated for 24 hrs by filter paper assay; assay type: functional
[16] = test system: Verticillium dahliae; assay: Antifungal activity against Verticillium dahliae assessed as reduction in fungal cell growth incubated for 48 hrs by serial dilution method; assay type: functional
[17] = test system: Cytospora; assay: Antifungal activity against Cytospora juglandis assessed as reduction in fungal cell growth incubated for 48 hrs by serial dilution method; assay type: functional
[18] = test system: Bacillus cereus; assay: Antibacterial activity against Bacillus cereus assessed as reduction in bacterial cell growth incubated for 24 hrs by filter paper assay; assay type: functional
[19] = test system: Candida tropicalis; assay: Antifungal activity against Candida tropicalis assessed as reduction in fungal cell growth incubated for 48 hrs by serial dilution method; assay type: functional
[20] = test system: Curvularia lunata; assay: Antifungal activity against Curvularia lunata assessed as reduction in fungal spore germination at 250 ug/ml relative to control; assay type: functional
[21] = test system: Curvularia lunata; assay: Antifungal activity against Curvularia lunata assessed as reduction in fungal cell growth at 250 ug/ml incubated for 48 hrs by serial dilution method relative to control; assay type: functional
[22] = test system: Curvularia lunata; assay: Antifungal activity against Curvularia lunata assessed as reduction in fungal cell growth at 125 ug/ml incubated for 48 hrs by serial dilution method relative to control; assay type: functional
[23] = test system: Curvularia lunata; assay: Antifungal activity against Curvularia lunata assessed as reduction in fungal spore germination at 125 ug/ml relative to control; assay type: functional
[24] = test system: Curvularia lunata; assay: Antifungal activity against Curvularia lunata assessed as reduction in fungal cell growth at 62.5 ug/ml incubated for 48 hrs by serial dilution method relative to control; assay type: functional
[25] = test system: Candida; assay: Antifungal activity against […] assessed as reduction in fungal spore germination at 500 ug/ml relative to control; assay type: functional
[26] = target: Acetylcholinesterase (Electrophorus electricus) (UniProt O42275); assay: Inhibition of electric eel AChE by at 1 mg/ml Ellman's colorimetry relative to control
[27] = test system: Verticillium dahliae; assay: Antifungal activity against Verticillium dahliae assessed as reduction in fungal cell growth at 62.5 ug/ml incubated for 48 hrs by serial dilution method relative to control; assay type: functional
[28] = test system: Verticillium dahliae; assay: Antifungal activity against Verticillium dahliae assessed as reduction in fungal cell growth at 250 ug/ml incubated for 48 hrs by serial dilution method relative to control; assay type: functional
[29] = test system: Verticillium dahliae; assay: Antifungal activity against Verticillium dahliae assessed as reduction in fungal cell growth at 31.25 ug/ml incubated for 48 hrs by serial dilution method relative to control; assay type: functional
[30] = test system: Verticillium dahliae; assay: Antifungal activity against Verticillium dahliae assessed as reduction in fungal cell growth at 125 ug/ml incubated for 48 hrs by serial dilution method relative to control; assay type: functional

Sequence of Acetylcholinesterase (Electrophorus electricus) (O42275 24-633 limits assumed): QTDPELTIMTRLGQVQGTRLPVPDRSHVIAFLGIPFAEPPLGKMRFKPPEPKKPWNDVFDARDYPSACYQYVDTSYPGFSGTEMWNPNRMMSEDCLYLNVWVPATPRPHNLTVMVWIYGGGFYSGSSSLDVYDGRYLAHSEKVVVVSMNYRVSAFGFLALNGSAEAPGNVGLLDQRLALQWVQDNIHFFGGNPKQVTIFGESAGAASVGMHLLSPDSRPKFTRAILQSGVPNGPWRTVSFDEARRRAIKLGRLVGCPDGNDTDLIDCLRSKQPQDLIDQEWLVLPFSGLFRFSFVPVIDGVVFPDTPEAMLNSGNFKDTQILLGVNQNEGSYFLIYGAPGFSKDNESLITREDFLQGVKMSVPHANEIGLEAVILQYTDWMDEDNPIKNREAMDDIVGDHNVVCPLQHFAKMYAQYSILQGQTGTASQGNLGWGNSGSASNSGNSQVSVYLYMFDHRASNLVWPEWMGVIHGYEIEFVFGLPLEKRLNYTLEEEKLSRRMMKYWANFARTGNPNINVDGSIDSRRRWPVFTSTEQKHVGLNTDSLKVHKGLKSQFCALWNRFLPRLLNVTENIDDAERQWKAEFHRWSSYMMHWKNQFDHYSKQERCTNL
Sequence of Acetylcholinesterase (O42275 whole entry): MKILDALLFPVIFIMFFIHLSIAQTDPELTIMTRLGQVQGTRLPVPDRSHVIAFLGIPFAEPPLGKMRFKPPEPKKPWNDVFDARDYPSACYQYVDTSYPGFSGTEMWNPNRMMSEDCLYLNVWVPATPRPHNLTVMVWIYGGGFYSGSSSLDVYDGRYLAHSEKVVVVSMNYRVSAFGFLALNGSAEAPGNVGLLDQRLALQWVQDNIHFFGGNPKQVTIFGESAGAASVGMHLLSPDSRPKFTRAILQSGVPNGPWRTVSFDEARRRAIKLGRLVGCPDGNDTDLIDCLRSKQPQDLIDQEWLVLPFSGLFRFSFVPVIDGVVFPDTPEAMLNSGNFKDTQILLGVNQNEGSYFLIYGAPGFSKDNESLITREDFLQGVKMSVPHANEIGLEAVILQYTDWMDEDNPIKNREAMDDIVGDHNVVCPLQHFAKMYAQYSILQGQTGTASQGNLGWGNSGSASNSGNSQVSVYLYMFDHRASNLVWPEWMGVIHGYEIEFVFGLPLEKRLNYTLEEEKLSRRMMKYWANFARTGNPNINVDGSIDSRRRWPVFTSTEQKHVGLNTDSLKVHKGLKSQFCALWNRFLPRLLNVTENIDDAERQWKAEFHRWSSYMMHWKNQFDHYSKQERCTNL

CCCCCCCC(=O)N1CCCC2(O)c3ccccc3N(C)C12 (centres undefined)
100%: inhibition at 500 µg/mL [11]
250 µg/mL: MIC [1] | MIC [3] | MIC [5] | MIC [6] | MIC [18]
62.5 µg/mL: MIC [8] | MIC [12] | MIC [16]
363 nM: IC50 [4]
inactive: MIC [9] | MIC [10] | MIC [14] | MIC [19]
125 µg/mL: MIC [2] | MIC [7] | MIC [13] | MIC [17]
31.2 µg/mL: MIC [15]

CCCCCCC(=O)N1CCCC2(O)c3ccccc3N(C)C12 (centres undefined)
4200 nM: IC50 [4]
15.5%: inhibition at 62.5 µg/mL [24]
62.5 µg/mL: MIC [12] | MIC [13] | MIC [15] | MIC [16]
31.3%: inhibition at 125 µg/mL [22]
125 µg/mL: MIC [2] | MIC [8] | MIC [17]
inactive: MIC [7] | MIC [10] | MIC [14]
76.2%: inhibition at 125 µg/mL [23]
77.7%: inhibition at 250 µg/mL [21]
43.7%: inhibition at 250 µg/mL [20]
250 µg/mL: MIC [1] | MIC [3] | MIC [5] | MIC [6] | MIC [9] | MIC [18] | MIC [19]

CCCCCCCC(=O)N1CCC2(Cc3cccc(C)c3)c3ccccc3N(Cc3cccc(C)c3)C12 (centres undefined)
125 µg/mL: MIC [2] | MIC [5] | MIC [9] | MIC [12] | MIC [13] | MIC [17] | MIC [19]
250 µg/mL: MIC [1] | MIC [3] | MIC [6] | MIC [7] | MIC [8] | MIC [10]
87.5%: inhibition at 500 µg/mL [25]
62.5 µg/mL: MIC [15] | MIC [16] | MIC [18]
31.2 µg/mL: MIC [14]
87900 nM: IC50 [4]

Cc1ccccc1CN1c2ccccc2C2(Cc3ccccc3C)CCN(S(=O)(=O)c3ccccc3)C12 (centres undefined)
275 nM: IC50 [4]
active: inhibition [23]
250 µg/mL: MIC [1] | MIC [3] | MIC [6] | MIC [7] | MIC [9] | MIC [14] | MIC [17]
inactive: MIC [2] | MIC [5] | MIC [8] | MIC [10] | MIC [12] | MIC [13] | MIC [15] | MIC [19]
125 µg/mL: MIC [16] | MIC [18]
> 80%: inhibition [26]

CC(C)C(=O)N1CCCC2(O)c3ccccc3N(C)C12 (centres undefined)
> 80%: inhibition [26]
510 nM: IC50 [4]
250 µg/mL: MIC [5] | MIC [16]
inactive: MIC [1] | MIC [2] | MIC [3] | MIC [6] | MIC [7] | MIC [8] | MIC [9] | MIC [10] | MIC [12] | MIC [13] | MIC [14] | MIC [15] | MIC [17] | MIC [18] | MIC [19]

CCCCCCCC(=O)N1CCC2(Cc3ccccc3C)c3ccccc3N(Cc3ccccc3C)C12 (centres undefined)
67.7%: inhibition at 250 µg/mL [28]
47%: inhibition at 62.5 µg/mL [27]
63.4%: inhibition at 125 µg/mL [30]
250 µg/mL: MIC [1] | MIC [3] | MIC [6] | MIC [7] | MIC [10]
31.2 µg/mL: MIC [14] | MIC [16]
62.5 µg/mL: MIC [2] | MIC [15] | MIC [18]
46.2%: inhibition at 31.25 µg/mL [29]
125 µg/mL: MIC [5] | MIC [8] | MIC [9] | MIC [12] | MIC [13] | MIC [17] | MIC [19]
16500 nM: IC50 [4]

CCC(=O)N1CCCC2(O)c3ccccc3N(C)C12 (centres undefined)
31.2 µg/mL: MIC [15]
0.0384 nM: IC50 [4]
inactive: MIC [1] | MIC [2] | MIC [3] | MIC [6] | MIC [7] | MIC [8] | MIC [9] | MIC [10] | MIC [12] | MIC [13] | MIC [14] | MIC [17] | MIC [18] | MIC [19]
250 µg/mL: MIC [5] | MIC [16]
> 80%: inhibition [26]

CN1c2ccccc2C2(O)CCCN(C(=O)c3ccccc3)C12 (centres undefined)
inactive: MIC [1] | MIC [2] | MIC [3] | MIC [6] | MIC [7] | MIC [9] | MIC [10] | MIC [13] | MIC [14] | MIC [16] | MIC [17] | MIC [18]
> 80%: inhibition [26]
250 µg/mL: MIC [5] | MIC [8] | MIC [12] | MIC [19]
62.5 µg/mL: MIC [15]
259 nM: IC50 [4]

Cc1ccc(C(=O)N2CCCC3(O)c4ccccc4N(C)C23)cc1 (centres undefined)
inactive: MIC [1] | MIC [2] | MIC [3] | MIC [6] | MIC [7] | MIC [8] | MIC [9] | MIC [10] | MIC [12] | MIC [13] | MIC [14] | MIC [15] | MIC [17] | MIC [18] | MIC [19]
2850 nM: IC50 [4]
250 µg/mL: MIC [5] | MIC [16]
> 80%: inhibition [26]
